Laboratory results: article PMC2663715, “Snapshots of Catalysis in the E1 Subunit of the Pyruvate Dehydrogenase Multienzyme Complex” (Structure(London, England:1993), 2008)

How the values were obtained:
[1] = biological target: T1, E1p/E2p-PSBD complex (pyruvate dehydrogenase E1 subunit with E2p peripheral subunit binding domain) (Geobacillus stearothermophilus, UniProt P21873+P21874, P21873:I207A); assay: X-ray crystal structure, […] A; conditions: 5 mM 3-deazaThDP; crystals at pH 5.0; ThDP site
T1 construct: gene pdhA; alpha2beta2 heterotetramer with one E2p PSBD; recombinant in E. coli TG1 recO (plasmids pKBstE1a, pKBstE1b); he-3-deazaThDP crystals grown with E2p di-domain (lipoyl domain-linker-PSBD); with Dihydrolipoyllysine-residue acetyltransferase component of pyruvate dehydrogenase complex

[2] = biological target: T2, E1p/E2p-PSBD complex (pyruvate dehydrogenase E1 subunit with E2p peripheral subunit binding domain) (Geobacillus stearothermophilus, UniProt P21873+P21874); assay: X-ray crystal structure, […] A
T2 construct: gene pdhA; alpha2beta2 heterotetramer with one E2p PSBD; recombinant in E. coli TG1 recO (plasmids pKBstE1a, pKBstE1b); he-3-deazaThDP crystals grown with E2p di-domain (lipoyl domain-linker-PSBD); with Dihydrolipoyllysine-residue acetyltransferase component of pyruvate dehydrogenase complex

Compound | X-ray crystal structure, 2.35 A [1] | X-ray crystal structure, 2.3 A ([2]; Mg2+, pyruvate soaked in, ThDP site) | X-ray crystal structure, 2.3 A ([2]; 10 mM pyruvate soak 1 week into 3-deazaThDP crystals, density in two of four sites, orientation not definitive)
Cc1ncc(Cc2csc(CCOP(=O)(O)OP(=O)(O)O)c2C)c(N)n1 [3-deazaThDP] | crystal structure of the complex of 3-deazaThDP with the G. stearothermophilus E1p I206Aα mutant | we have solved the structure of the E1p/E2p-PSBD complex with bound 3-deazaThDP and pyruvate | –
CC(=O)C(=O)O [pyruvate] | – | – | density in the active-site pocket that is likely to be due to pyruvate binding
